Our source for the IC50 values is patent publication US20080261994A1, “CYCLOPROPANE COMPOUNDS AND PHARMACEUTICAL USE THEREOF” (Japan Tobacco Inc., priority 2003, published 2008).

Structures can show the parent of a compound that is named as a salt. Some results are limits rather than exact numbers.

Common to all, as to assay type: biochemical
The target in test [1] is T1, aggrecanase-1 (Homo sapiens, UniProt O75173).
T1 sequence (O75173 213-837): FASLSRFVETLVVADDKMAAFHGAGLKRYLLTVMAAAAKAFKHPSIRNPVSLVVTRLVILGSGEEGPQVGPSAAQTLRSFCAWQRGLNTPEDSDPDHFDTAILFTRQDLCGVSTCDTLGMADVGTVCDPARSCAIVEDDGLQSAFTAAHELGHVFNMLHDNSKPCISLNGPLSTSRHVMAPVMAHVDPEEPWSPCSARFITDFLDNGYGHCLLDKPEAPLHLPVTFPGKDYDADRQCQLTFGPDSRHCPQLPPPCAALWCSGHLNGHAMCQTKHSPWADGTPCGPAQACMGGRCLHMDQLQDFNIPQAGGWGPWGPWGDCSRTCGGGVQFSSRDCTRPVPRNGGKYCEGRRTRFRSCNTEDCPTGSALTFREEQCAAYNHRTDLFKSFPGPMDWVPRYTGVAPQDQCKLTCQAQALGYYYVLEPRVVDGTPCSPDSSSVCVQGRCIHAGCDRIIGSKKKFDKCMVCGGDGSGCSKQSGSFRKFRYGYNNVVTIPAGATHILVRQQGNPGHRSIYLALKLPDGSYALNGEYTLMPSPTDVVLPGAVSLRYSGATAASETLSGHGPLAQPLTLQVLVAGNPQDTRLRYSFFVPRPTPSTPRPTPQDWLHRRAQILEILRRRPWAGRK
Put plainly: Aggrecanase-1 inhibitory action (Particle Assay, GAG release from aggrecan-containing polyacrylamide particles). The note with it: aggrecanase-1 inhibitory action; read-out: IC50 AG1 (Experimental Example 1). The gist of the method:
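Readout was dimethylmethylene blue absorbance (595 nm) of glycosaminoglycan liberated into supernatant, calibrated with whale chondroitin sulfate. Substrate was aggrecan in polyacrylamide particles, digested 15 h at 37° C in Tris-HCl; TC50 (μM) derived from inhibition relative to no-enzyme and no-inhibitor controls.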

Test [2] addresses T2, MMP-1 (Homo sapiens, UniProt P03956).
T2 sequence (P03956 100-469): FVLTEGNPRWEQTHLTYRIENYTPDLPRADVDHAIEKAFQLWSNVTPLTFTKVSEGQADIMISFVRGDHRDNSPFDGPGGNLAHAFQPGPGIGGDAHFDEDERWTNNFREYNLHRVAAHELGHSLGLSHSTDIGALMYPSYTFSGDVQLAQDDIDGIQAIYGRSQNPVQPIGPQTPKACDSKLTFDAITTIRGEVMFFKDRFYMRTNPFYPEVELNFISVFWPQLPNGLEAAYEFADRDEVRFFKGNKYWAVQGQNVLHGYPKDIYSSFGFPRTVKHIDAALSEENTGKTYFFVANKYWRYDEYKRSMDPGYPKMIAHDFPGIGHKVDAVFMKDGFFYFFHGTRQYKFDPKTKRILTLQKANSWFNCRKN
The test is described as follows: MMP-1 inhibitory action (Type I collagen Activity Measurement kit, FITC-labeled collagen type I). The note with it: MMP-1 inhibitory action, FITC-labeled collagen type I, 37° C. for 3 hr; read-out: IC50 MMP1 (Experimental Example 2).

The target in test [3] is T3, Recombinant Human MMP-13 (Homo sapiens, UniProt P45452).
T3 construct: purchased R&D systems 511-MM
The test is described as follows: MMP-13 inhibitory activity (MMP-13 specific fluorescent substrate with quencher). To be noted: Recombinant Human MMP-13, fluorescent substrate, 25° C. for 1 h; read-out: IC50 MMP13 (Experimental Example 3). In a few lines:
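IC50 (μM) derived from % inhibition, normalised to wells without enzyme and without inhibitor, fluorescence read at 325/405 nm. Enzyme and compound preceded addition of the quenched 7-MCA…DPA substrate; Tris-HCl buffer, 25 °C for 1 h, acetic-acid stop.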

Consider `O=C(O)COc1ccccc1C1CC1(NS(=O)(=O)c1ccc(-c2ccc(Cl)cc2)s1)C(=O)O` (stereo not drawn) [Example 1-139], for which the figures for the IC50 in test [1], in test [2] and in test [3] were < 0.1 µM, ≥ 10 µM and < 1 µM, respectively.

Turning to `CC(C)(C)OC(=O)N1CC=C(c2ccc(S(=O)(=O)N[C@@]3(C(=O)O)C[C@@H]3c3ccccc3)s2)CC1` [Example 2, 4-[5-((1S,2R)-1-carboxy-2-phenyl-cyclopropanesulfamoyl)-thiophene-2-yl]-3,6-dihydro-2H-pyridin-1-carboxylic acid t-butyl ester], the IC50 (in general, the point on the concentration scale where inhibition reaches its midpoint) in test [1] was ≥ 1 µM; in test [2], ≥ 10 µM; in test [3], ≥ 10 µM.

In the case of `O=C(O)[C@]1(NS(=O)(=O)c2ccc(C3=CCNCC3)s2)C[C@@H]1c1ccccc1` [Example 2-2, (1S,2R)-2-phenyl-1-[5-(1,2,3,6-tetrahydro-pyridin-4-yl)-thiophene-2-sulfonylamino]-cyclopropanecarboxylic acid hydrochloride], the 50% inhibitory concentration (IC50) in test [1], in test [2] and in test [3] was ≥ 10 µM each time.

For `COC(=O)N1CC=C(c2ccc(S(=O)(=O)N[C@@]3(C(=O)O)C[C@@H]3c3ccccc3)s2)CC1` [Example 2-3, 4-[5-((1S,2R)-1-carboxy-2-phenyl-cyclopropanesulfamoyl)-thiophene-2-yl]-3,6-dihydro-2H-pyridin-1-carboxylic acid methyl ester], the figures for the IC50 in test [1], in test [2] and in test [3] were ≥ 1 µM, ≥ 10 µM and ≥ 1 µM, respectively.

`C#Cc1cnn(-c2ccc(S(=O)(=O)N[C@@]3(C(=O)O)[C@H](C)[C@@H]3c3ccccc3)s2)c1` [Example 2-4, (1S,2R,3R)-1-[5-(4-ethynyl-pyrazole-1-yl)-thiophene-2-sulfonylamino]-2-methyl-3-phenyl-cyclopropanecarboxylic acid]: the 50% inhibitory concentration (IC50) in test [1] is < 0.1 µM; in test [2], < 1 µM; in test [3] it was < 0.1 µM.

On to `C[C@@H]1[C@H](c2ccccc2)[C@]1(NS(=O)(=O)N1CCN(c2ccc(C(F)(F)F)cn2)CC1)C(=O)O` [Example 2-5, (1S,2R,3R)-2-methyl-3-phenyl-1-[4-(5-trifluoromethyl-pyridin-2-yl)-piperazine-1-sulfonylamino]-cyclopropanecarboxylic acid], for which the IC50 is < 1 µM in test [1], ≥ 1 µM in test [2] and < 0.1 µM in test [3].

Regarding `C[C@]1(c2ccccc2)C[C@@]1(NS(=O)(=O)c1ccc(-c2cc(C(F)(F)F)on2)s1)C(=O)O` [Example 2-6, (1S,2R)-2-methyl-2-phenyl-1-[5-(5-trifluoromethyl-isoxazol-3-yl)-thiophene-2-sulfonylamino]-cyclopropanecarboxylic acid], the IC50 was < 0.1 µM in test [1], ≥ 1 µM in test [2] and < 1 µM in test [3].

Regarding `C[C@@H]1[C@H](c2ccccc2)[C@]1(NS(=O)(=O)c1ccc(-c2cc(C(F)(F)F)on2)s1)C(=O)O` [Example 2-7, (1S,2R,3R)-2-methyl-3-phenyl-1-[5-(5-trifluoromethyl-isoxazol-3-yl)-thiophene-2-sulfonylamino]-cyclopropanecarboxylic acid], the IC50 in test [1] was < 0.1 µM; in test [2], < 1 µM; in test [3] it was < 0.1 µM.

As for `O=C(O)C1(NS(=O)(=O)c2ccc(-c3ccc(Cl)cc3)s2)C2CCCc3ccccc3C21` (stereo not drawn) [Example 2-8, (1R*,1aS*,8bS*)-1-[5-(4-chloro-phenyl)thiophene-2-sulfonylamino]-1,1a,2,3,4,8b-hexahydrobenzo[a]cyclopropane[c]cyclohepten-1-carboxylic acid], the half-inhibitory concentration (IC50) in test [1] is < 0.1 µM; in test [2], ≥ 1 µM; in test [3], < 0.1 µM.

Consider `C[C@@H]1[C@H](c2ccccc2)[C@]1(NS(=O)(=O)c1ccc(-c2cc(C(C)(F)F)on2)s1)C(=O)O` [Example 2-9, (1S,2R,3R)-1-{5-[5-(1,1-difluoro-ethyl)-isoxazol-3-yl]-thiophene-2-sulfonylamino}-2-methyl-3-phenyl-cyclopropanecarboxylic acid], for which the IC50 in test [1], in test [2] and in test [3] was < 0.1 µM throughout.

Regarding `CC1[C@H](c2ccccc2)[C@]1(NS(=O)(=O)N1CCN(C(=O)Nc2ccccc2)CC1)C(=O)O` (stereo partly drawn) [Example 2-11, (1S,2R,3R)-2-methyl-3-phenyl-1-(4-phenylcarbamoyl-piperazine-1-sulfamoylamino)-cyclopropanecarboxylic acid], the half-maximal inhibitory concentration (IC50) in test [1], in test [2] and in test [3] was ≥ 1 µM in each case.

On to `C[C@]1(c2ccccc2)C[C@@]1(NS(=O)(=O)c1ccc(-c2ccc(Cl)c(N)c2)s1)C(=O)O` [Example 2-12, (1S,2R)-1-[5-(3-amino-4-chloro-phenyl)-thiophene-2-sulfonylamino]-2-methyl-2-phenyl-cyclopropanecarboxylic acid], for which the results for the IC50 in test [1], in test [2] and in test [3] were < 0.1 µM, < 1 µM and < 0.1 µM, respectively.

For `Cn1nc(C(F)(F)F)cc1-c1ccc(S(=O)(=O)NC2(C(=O)O)CC2c2ccccc2)s1` (stereo not drawn) [Example 2-14], the IC50 in test [1], in test [2] and in test [3] was ≥ 10 µM throughout.

As to `O=C(O)C1(NS(=O)(=O)N2CC(Oc3ccc(Cl)cc3)C2)CC1c1ccccc1` (stereo not drawn) [Example 2-15], the IC50 in test [1] was ≥ 10 µM; in test [2] it was ≥ 10 µM; in test [3] it was ≥ 1 µM.

Regarding `Cn1nc(-c2ccc(S(=O)(=O)NC3(C(=O)O)CC3c3ccccc3)s2)cc1C(F)(F)F` (stereo not drawn) [Example 2-16], the concentration for half-maximal inhibition (IC50) in test [1] was ≥ 10 µM; in test [2] it was ≥ 10 µM; in test [3], < 1 µM.

For the compound `O=C(O)C1(NS(=O)(=O)c2ccc(-c3ccc(OC(F)(F)F)cc3)s2)CC1c1ccccc1` (stereo not drawn) [Example 2-17], the IC50 in test [1] is ≥ 1 µM; in test [2] it was ≥ 10 µM; in test [3], < 0.1 µM.

In the case of `O=C(O)C1(NS(=O)(=O)c2ccc(-c3ccc(Cl)c(Cl)c3)s2)CC1c1ccccc1` (stereo not drawn) [Example 2-18], the half-inhibitory concentration (IC50) in test [1] is < 1 µM; in test [2], ≥ 1 µM; in test [3], < 1 µM.

As to `O=C(O)C1(NS(=O)(=O)c2ccc(-c3ccc(C(F)(F)F)cc3)s2)CC1c1ccccc1` (stereo not drawn) [Example 2-19], the half-maximal inhibitory concentration (IC50) is < 1 µM in test [1], ≥ 10 µM in test [2] and < 1 µM in test [3].

In the case of `Cc1ccc(-c2ccc(S(=O)(=O)NC3(C(=O)O)CC3c3ccccc3)s2)cc1` (stereo not drawn) [Example 2-20], the results for the IC50 in test [1], in test [2] and in test [3] were < 1 µM, ≥ 1 µM and < 0.1 µM, respectively.

As to `O=C(O)C1(NS(=O)(=O)c2ccc(-c3ccc(F)cc3)s2)CC1c1ccccc1` (stereo not drawn) [Example 2-21], the half-maximal inhibitory concentration (IC50) in test [1] is < 1 µM; in test [2], ≥ 1 µM; in test [3] it was < 1 µM.

Take `O=C(O)C1(NS(=O)(=O)c2ccc(-c3ccc(Cl)cc3)s2)CC1c1ccccc1OCc1cccnc1` (stereo not drawn) [Example 2-22]: the IC50 in test [1] was < 0.1 µM; in test [2] it was ≥ 10 µM; in test [3], < 0.1 µM.

Turning to `O=C(O)C1(NS(=O)(=O)c2ccc(-c3ccc(Cl)cc3)s2)CC1c1ccccc1OCc1ccccn1` (stereo not drawn) [Example 2-23], the figures for the IC50 in test [1], in test [2] and in test [3] were < 1 µM, ≥ 10 µM and < 1 µM, respectively.

Turning to `O=C(O)C1(NS(=O)(=O)c2ccc(-c3ccc(Cl)cc3)s2)CC1c1ccccc1Oc1cccnc1` (stereo not drawn) [Example 2-24], the concentration for half-maximal inhibition (IC50) is < 1 µM in test [1], ≥ 10 µM in test [2] and < 1 µM in test [3].

In the case of `CC(C)(O)COc1ccccc1C1CC1(NS(=O)(=O)c1ccc(-c2ccc(Cl)cc2)s1)C(=O)O` (stereo not drawn) [Example 2-25], the IC50 in test [1] is < 0.1 µM; in test [2], ≥ 10 µM; in test [3] it was < 1 µM.

Turning to `O=C(O)[C@]1(NS(=O)(=O)c2ccc(-c3ccc(Cl)nc3)s2)C[C@@H]1c1ccccc1` [Example 2-27], the IC50 in test [1] was < 1 µM; in test [2], ≥ 10 µM; in test [3], < 1 µM.
